Measurements reported in PubChem BioAssay AID1259407 (Chemical Carcinogenesis Research Information System (CCRIS), 2018).
Active and inactive are the calls of the source. How the calls were made is not given here.

System: CCRIS mutagenicity, Ames/micronucleus/aberration tests
Assay: CCRIS mutagenicity studies
Conditions: Test System: AMES SALMONELLA TYPHIMURIUM

Measured: mutagenic call

CCN(N=O)c1ccccc1
inactive: Strain/Indicator: TA98, Metabolic Activation: HAMSTER, LIVER, S-9, AROCLOR 1254, Method: PREINCUBATION inactive; negative | Strain/Indicator: TA98, Metabolic Activation: HAMSTER, LIVER, S-9, AROCLOR 1254, Method: STANDARD PLATE inactive; negative | Strain/Indicator: TA98, Metabolic Activation: HAMSTER, LIVER, S-9, Method: PREINCUBATION inactive; negative | Strain/Indicator: TA98, Metabolic Activation: HAMSTER, LIVER, S-9, Method: STANDARD PLATE inactive; negative | Strain/Indicator: TA98, Metabolic Activation: MOUSE, LIVER, S-9, AROCLOR 1254, Method: PREINCUBATION inactive; negative | Strain/Indicator: TA98, Metabolic Activation: MOUSE, LIVER, S-9, AROCLOR 1254, Method: STANDARD PLATE inactive; negative | Strain/Indicator: TA98, Metabolic Activation: MOUSE, LIVER, S-9, Method: PREINCUBATION inactive; negative | Strain/Indicator: TA98, Metabolic Activation: MOUSE, LIVER, S-9, Method: STANDARD PLATE inactive; negative | Strain/Indicator: TA98, Metabolic Activation: NONE, Method: PREINCUBATION inactive; negative | Strain/Indicator: TA98, Metabolic Activation: NONE, Method: STANDARD PLATE inactive; negative | Strain/Indicator: TA98, Metabolic Activation: RAT, LIVER, S-9, AROCLOR 1254, Method: PREINCUBATION inactive; negative | Strain/Indicator: TA98, Metabolic Activation: RAT, LIVER, S-9, AROCLOR 1254, Method: STANDARD PLATE inactive; negative | Strain/Indicator: TA98, Metabolic Activation: RAT, LIVER, S-9, Method: PREINCUBATION inactive; negative | Strain/Indicator: TA98, Metabolic Activation: RAT, LIVER, S-9, Method: STANDARD PLATE inactive; negative | Strain/Indicator: TA100, Metabolic Activation: HAMSTER, LIVER, S-9, AROCLOR 1254, Method: PREINCUBATION inactive; negative | Strain/Indicator: TA100, Metabolic Activation: HAMSTER, LIVER, S-9, AROCLOR 1254, Method: STANDARD PLATE inactive; negative | Strain/Indicator: TA100, Metabolic Activation: HAMSTER, LIVER, S-9, Method: PREINCUBATION inactive; negative | Strain/Indicator: TA100, Metabolic Activation: HAMSTER, LIVER, S-9, Method: STANDARD PLATE inactive; negative | Strain/Indicator: TA100, Metabolic Activation: MOUSE, LIVER, S-9, AROCLOR 1254, Method: PREINCUBATION inactive; negative | Strain/Indicator: TA100, Metabolic Activation: MOUSE, LIVER, S-9, AROCLOR 1254, Method: STANDARD PLATE inactive; negative | Strain/Indicator: TA100, Metabolic Activation: MOUSE, LIVER, S-9, Method: PREINCUBATION inactive; negative | Strain/Indicator: TA100, Metabolic Activation: MOUSE, LIVER, S-9, Method: STANDARD PLATE inactive; negative | Strain/Indicator: TA100, Metabolic Activation: NONE, Method: PREINCUBATION inactive; negative | Strain/Indicator: TA100, Metabolic Activation: NONE, Method: STANDARD PLATE inactive; negative | Strain/Indicator: TA100, Metabolic Activation: RAT, LIVER, S-9, AROCLOR 1254, Method: PREINCUBATION inactive; negative | Strain/Indicator: TA100, Metabolic Activation: RAT, LIVER, S-9, AROCLOR 1254, Method: STANDARD PLATE inactive; negative | Strain/Indicator: TA100, Metabolic Activation: RAT, LIVER, S-9, Method: PREINCUBATION inactive; negative | Strain/Indicator: TA100, Metabolic Activation: RAT, LIVER, S-9, Method: STANDARD PLATE inactive; negative | Strain/Indicator: TA1535, Metabolic Activation: HAMSTER, LIVER, S-9, AROCLOR 1254, Method: PREINCUBATION inactive; negative | Strain/Indicator: TA1535, Metabolic Activation: HAMSTER, LIVER, S-9, AROCLOR 1254, Method: STANDARD PLATE inactive; negative | Strain/Indicator: TA1535, Metabolic Activation: HAMSTER, LIVER, S-9, Method: PREINCUBATION inactive; negative | Strain/Indicator: TA1535, Metabolic Activation: HAMSTER, LIVER, S-9, Method: STANDARD PLATE inactive; negative | Strain/Indicator: TA1535, Metabolic Activation: MOUSE, LIVER, S-9, AROCLOR 1254, Method: PREINCUBATION inactive; negative | Strain/Indicator: TA1535, Metabolic Activation: MOUSE, LIVER, S-9, AROCLOR 1254, Method: STANDARD PLATE inactive; negative | Strain/Indicator: TA1535, Metabolic Activation: MOUSE, LIVER, S-9, Method: PREINCUBATION inactive; negative | Strain/Indicator: TA1535, Metabolic Activation: MOUSE, LIVER, S-9, Method: STANDARD PLATE inactive; negative | Strain/Indicator: TA1535, Metabolic Activation: NONE, Method: PREINCUBATION inactive; negative | Strain/Indicator: TA1535, Metabolic Activation: NONE, Method: STANDARD PLATE inactive; negative | Strain/Indicator: TA1535, Metabolic Activation: RAT, LIVER, S-9, AROCLOR 1254, Method: PREINCUBATION inactive; negative | Strain/Indicator: TA1535, Metabolic Activation: RAT, LIVER, S-9, AROCLOR 1254, Method: STANDARD PLATE inactive; negative | Strain/Indicator: TA1535, Metabolic Activation: RAT, LIVER, S-9, Method: PREINCUBATION inactive; negative | Strain/Indicator: TA1535, Metabolic Activation: RAT, LIVER, S-9, Method: STANDARD PLATE inactive; negative
